Data set [1] in a line: Pharmacokinetics assays (plasma and brain). In kind it is in vivo. Details: AUC(0-t) / AUC(0-inf): concentration or dose not given beside the values.
Data set [2] concerns eIF4E Ser209 phosphorylation in Hela cells. Put plainly: MNK cell-based assay (AlphaScreen SureFire, eIF4E Ser209 phosphorylation). To be noted: read-out: IC50 Hela. In outline:
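Hela cells (30,000/well) exposed to test compound in serum-free medium for 2 h at 37 °C, then lysed. Phospho-Ser209 eIF4E quantified by AlphaScreen SureFire; IC50 obtained by non-linear regression of signal versus log compound concentration.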
In general terms: Bead proximity is the source of the signal in Alpha formats.

[3] abbreviates: Homo sapiens, eIF4E Ser209 phosphorylation, Hela cells, 2 hours.
Where [4] appears, read: eIF4E Ser209 phosphorylation, Hela cells, 2 hours.

pIC50: −log10 of the molar value. Like-named read-outs stand apart in the source and are kept apart here. Where only a bound is given, the exact number is not on record here.

`CN1CCN(C(=O)c2ccc(-c3cn4c(-c5ccc(C#N)cc5)cnc4cn3)cc2)CC1` [Entry 1]: the “Brain AUC inf” value in data set [1] (brain) turned out to be 625 ng·h/g. Besides, the “Brain AUC last” value in data set [1] (brain) amounted to 520 ng·h/g. For the same compound, the “Brain Cmax” value in data set [1] (brain) came out at 290 ng/g. The half-life in data set [1] (brain, read-out: Brain T1/2 (converted)) was 83.4 min; in data set [1] (plasma, read-out: Plasma T1/2 (converted)), 181 min. Further, the Tmax (usually the time from dosing to the highest level) in data set [1] (brain, read-out: Brain Tmax) worked out at 30 min; in data set [1] (plasma, read-out: Plasma Tmax) it was 15 min. Also, in data set [1] (plasma), the AUC(0-inf) (usually the area under the concentration-time curve extrapolated to infinity) is 7440 ng·h/mL. Also, in data set [1] (plasma, read-out: Plasma AUC last), the AUC(0-t) is 7420 ng·h/mL. For the same compound, the Cmax – broadly, the maximum level reached in the sampled fluid or tissue – in data set [1] (plasma, species, dose and route not given) was 2670 ng/mL.
Regarding `CN1CCN(C(=O)c2ccc(-c3ccc4ncc(-c5ccc(C#N)cc5)n4c3)cc2Cl)CC1` [Example 141, 4-(6-(3-chloro-4-(4-methylpiperazine-1-carbonyl)phenyl)imidazo[1,2-a]pyridin-3-yl)benzonitrile], the pIC50 (as a rule, the negative decadic logarithm of the IC50, by convention in mol/L) in data set [2] (setting [3]) was > 6.00.
On to `CN1CCN(C(=O)c2ccc(-c3ccc4ncc(-c5ccc(C#N)cc5)n4c3)cc2F)CC1` [Example 142, 4-(6-(3-fluoro-4-(4-methylpiperazine-1-carbonyl)phenyl)imidazo[1,2-a]pyridin-3-yl)benzonitrile], for which the negative-log IC50 (pIC50) in data set [2] (setting [3]) was > 6.00.
On to `CN1CCN(C(=O)c2ccc(-c3ccc4ncc(-c5ccc(C#N)cc5)n4c3)cc2O)CC1` [Example 143], for which the pIC50 in data set [2] (setting [4]) was > 6.00.
Still for that read-out and setting: under `CN1CCN(C(=O)c2ccc(-c3ccc4ncc(-c5ccc(C#N)cc5)n4c3)c(O)c2)CC1` [Example 144] stands > 6.00.
Take `CN1CCN(C(=O)c2ccc(-c3ccc4ncc(-c5ccc(C#N)cc5)n4c3)cc2C(F)(F)F)CC1` [Example 145, 4-(6-(4-(4-methylpiperazine-1-carbonyl)-3-(trifluoromethyl)phenyl)imidazo[1,2-a]pyridin-3-yl)benzonitrile]: the pIC50 in data set [2] (setting [3]) is > 6.00.
Still for that read-out and setting: for `CN1CCN(C(=O)c2ccc(-c3ccc4ncc(-c5ccc(C#N)cc5)n4c3)cc2N)CC1` [Example 146, 4-(6-(3-amino-4-(4-methylpiperazine-1-carbonyl)phenyl)imidazo [1,2-a]pyridin-3-yl)benzonitrile] the value was > 6.00.
Still for that read-out and setting: for `CN1CCN(C(=O)c2ccc(-c3ccc4ncc(-c5ccc(C#N)cc5)n4c3)cc2N(C)C)CC1` [Example 147, 4-(6-(3-(dimethylamino)-4-(4-methylpiperazine-1-carbonyl)phenyl)imidazo[1,2-a]pyridin-3-yl)benzonitrile] the value was > 6.00.
Still for that read-out and setting: for `CC(=O)Nc1cc(-c2ccc3ncc(-c4ccc(C#N)cc4)n3c2)ccc1C(=O)N1CCN(C)CC1` [Example 149, N-(5-(3-(4-cyanophenyl)imidazo[1,2-a]pyridin-6-yl)-2-(4-methylpiperazine-1-carbonyl)phenyl)acetamide] the value was > 6.00; for `CNc1cc(-c2ccc3ncc(-c4ccc(C#N)cc4)n3c2)ccc1C(=O)N1CCN(C)CC1` [Example 150, 4-(6-(3-(methylamino)-4-(4-methylpiperazine-1-carbonyl)phenyl)imidazo [1,2-a]pyridin-3-yl)benzonitrile], > 6.00; for `CNc1cc(-c2ccc3ncc(-c4ccc(C#N)cc4)n3c2)ccc1C(=O)N1CCOCC1` [Example 151, 4-(6-(3-(methylamino)-4-(morpholine-4-carbonyl)phenyl)imidazo[1,2-a]pyridin-3-yl)benzonitrile], > 6.00.
On to `CN1CCN(C(=O)c2ccc(-c3ccc4ncc(-c5ccc(C#N)cc5)n4c3)c(Cl)c2)CC1` [Example 153], for which the pIC50 in data set [2] (setting [3]) was > 6.00.
The same measure, in the same setting: under `Cc1cc(-c2ccc3ncc(-c4ccc(C#N)cc4)n3c2)ccc1C(=O)N1CCOCC1` [Example 156] stands > 6.00; under `CN1CCN(C(=O)c2ccc(-c3ccc4ncc(-c5ccc(C#N)cc5)n4c3)cc2OC(F)(F)F)CC1` [Example 157], > 6.00; under `COc1cc(-c2ccc3ncc(-c4ccc(C#N)cc4)n3c2)ccc1C(=O)N1CCOCC1` [Example 158], > 6.00.
Same read-out and setting: for `N#Cc1ccc(-c2cnc3ccc(-c4ccc(C(=O)N5CCNCC5)c(O)c4)cn23)cc1` [Example 159, 4-(6-(3-hydroxy-4-(piperazine-1-carbonyl)phenyl)imidazo[1,2-a]pyridin-3-yl)benzonitrile] the value was > 6.00; for `N#Cc1ccc(-c2cnc3ccc(-c4ccc(C(=O)N5CCOCC5)c(N5CCOCC5)c4)cn23)cc1` [Example 160, 4-(6-[3-(morpholin-4-yl)-4-(morpholin-4-ylcarbonyl)phenyl]imidazo[1,2-a]pyridin-3-yl)benzonitrile], > 6.00; for `N#Cc1ccc(-c2cnc3ccc(-c4ccc(C(=O)N5CCOCC5)c(F)c4)cn23)cc1` [Example 162, 4-(6-(3-fluoro-4-(morpholine-4-carbonyl)phenyl)imidazo [1,2-a]pyridin-3-yl)benzonitrile], > 6.00.
In the case of `CC1(N2CCOCC2)CCN(C(=O)c2ccc(-c3ccc4ncc(-c5ccc(C#N)cc5)n4c3)cc2)CC1` [Example 163, 4-(6-(4-(4-methyl-4-morpholinopiperidine-1-carbonyl)phenyl)imidazo [1,2-a]pyridin-3-yl)benzonitrile], in data set [2] (setting [3]), the pIC50 was > 6.00.
The same measure, in the same setting: for `CN1CCN(C2(C)CCN(C(=O)c3ccc(-c4ccc5ncc(-c6ccc(C#N)cc6)n5c4)cc3)CC2)CC1` [Example 164, 4-(6-(4-(4-methyl-4-(4-methylpiperazin-1-yl)piperidine-1-carbonyl)phenyl)imidazo [1,2-a]pyridin-3-yl)benzonitrile] the value was > 6.00; for `N#Cc1ccc(-c2cnc3ccc(-c4ccc(C(=O)N5CCNCC5)cc4)cn23)cc1` [Example 165, 4-(6-(4-(piperazine-1-carbonyl)phenyl)imidazo [1,2-a]pyridin-3-yl)benzonitrile], > 6.00; for `CC(=O)Nc1cc(-c2ccc3ncc(-c4ccc(C#N)cc4)n3c2)ccc1C(=O)N1CCOCC1` [Example 166, N-(5-(3-(4-cyanophenyl)imidazo[1,2-a]pyridin-6-yl)-2-(morpholine-4-carbonyl)phenyl)acetamide], > 6.00.
The same measure, in the same setting: for `N#Cc1ccc(-c2cnc3ccc(-c4ccc(C(=O)N5CCOCC5)c(O)c4)cn23)cc1` [Example 167, 4-(6-(3-hydroxy-4-(morpholine-4-carbonyl)phenyl)imidazo[1,2-a]pyridin-3-yl)benzonitrile] the value was > 6.00.
Same read-out and setting: under `CNC1CCN(C(=O)c2ccc(-c3ccc4ncc(-c5ccc(C#N)cc5)n4c3)cc2NC(C)=O)CC1` [Example 169, N-(5-(3-(4-cyanophenyl)imidazo[1,2-a]pyridin-6-yl)-2-(4-(methylamino)piperidine-1-carbonyl)phenyl)acetamide] stands > 6.00; under `CC(=O)Nc1cc(-c2ccc3ncc(-c4ccc(C#N)cc4)n3c2)ccc1C(=O)N1CCNCC1` [Example 170, N-(5-(3-(4-cyanophenyl)imidazo[1,2-a]pyridin-6-yl)-2-(piperazine-1-carbonyl)phenyl)acetamide], > 6.00.
As for `COC1(C)CCN(C(=O)c2ccc(-c3ccc4ncc(-c5ccc(C#N)cc5)n4c3)cc2)CC1` [Example 172, 4-(6-(4-(4-methoxy-4-methylpiperidine-1-carbonyl)phenyl)imidazo[1,2-a]pyridin-3-yl)benzonitrile], the pIC50 in data set [2] (setting [3]) was > 6.00.
For `CC1(N)CCN(C(=O)c2ccc(-c3ccc4ncc(-c5ccc(Cl)cc5)n4c3)cc2)CC1` [Example 173, (4-amino-4-methylpiperidin-1-yl)(4-(3-(4-chlorophenyl)imidazo [1,2-a]pyridin-6-yl)phenyl)methanone], the pIC50 in data set [2] (Homo sapiens, HeLa, 2 h) is > 6.00.
On to `NC1CCN(C(=O)c2ccc(-c3ccc4ncc(-c5ccc(Cl)cc5)n4c3)cc2)CC1` [Example 174, (4-aminopiperidin-1-yl)(4-(3-(4-chlorophenyl)imidazo[1,2-a]pyridin-6-yl)phenyl)methanone], for which, in data set [2] (setting [3]), the pIC50 is > 6.00.
Take `CN1CCN(C2CCN(C(=O)c3ccc(-c4ccn5ncc(-c6ccc(C#N)cc6)c5n4)cc3)CC2)CC1` [Example 179, 4-(5-(4-(4-(4-methylpiperazin-1-yl)piperidine-1-carbonyl)phenyl)pyrazolo[1,5-a]pyrimidin-3-yl)benzonitrile]: in data set [2] (setting [3]), the pIC50 is > 6.00.
The same measure, in the same setting: under `N#Cc1ccc(-c2cnn3ccc(-c4ccc(C(=O)N5CCCOCC5)cc4)nc23)cc1` [Example 181, 4-(5-(4-(1,4-oxazepane-4-carbonyl)phenyl)pyrazolo[1,5-a]pyrimidin-3-yl)benzonitrile] stands > 6.00; under `N#Cc1ccc(-c2cnn3ccc(-c4ccc(C(=O)N5CCNCC5)cc4)nc23)cc1` [Example 183, 4-(5-(4-(piperazine-1-carbonyl)phenyl)pyrazolo[1,5-a]pyrimidin-3-yl)benzonitrile], > 6.00.
Still for that read-out and setting: for `CC(=O)N1CCN(C(=O)c2ccc(-c3ccn4ncc(-c5ccc(C#N)cc5)c4n3)cc2)CC1` [Example 184] the value was > 6.00; for `N#Cc1ccc(-c2cnn3ccc(-c4ccc(C(=O)N5CCOCC5)cc4)nc23)cc1` [Example 185, 4-(5-(4-(morpholine-4-carbonyl)phenyl)pyrazolo [1,5-a]pyrimidin-3-yl)benzonitrile], > 6.00.
As for `CC(=O)NC1CCN(C(=O)c2ccc(-c3ccn4ncc(-c5ccc(C#N)cc5)c4n3)cc2)CC1` [Example 186, N-(1-(4-(3-(4-cyanophenyl)pyrazolo[1,5-a]pyrimidin-5-yl)benzoyl)piperidin-4-yl)acetamide], in data set [2] (setting [3]), the pIC50 is > 6.00.
Take `N#Cc1ccc(-c2cnn3ccc(-c4ccc(C(=O)N5CCOCC5)c(O)c4)nc23)cc1` [Example 187, 4-(5-(3-hydroxy-4-(morpholine-4-carbonyl)phenyl)pyrazolo [1,5-a]pyrimidin-3-yl)benzonitrile]: in data set [2] (setting [3]), the pIC50 was > 6.00.
As for `N#Cc1ccc(-n2cnc3ccc(-c4ccc(C(=O)N5CCOCC5)cc4)cc32)cc1` [Example 190, 4-(6-(4-(morpholine-4-carbonyl)phenyl)-1H-benzo[d]imidazol-1-yl)benzonitrile], in data set [2] (Homo sapiens, HeLa, 2 h), the pIC50 was > 6.00.

For the origin of these results see US20190211020A1 (Agency for Science, Technology and Research, priority 2012, published 2019).
